In one test the test system is postmenopausal women. The test is described as follows: Weaning from hormone therapy with mirtazapine as non-hormonal therapy for vasomotor symptoms. The format is in vivo. The note with it: 15 mg by mouth at bedtime for 6 months from the day hormone therapy is discontinued; postmenopausal women 60-65 year old; in comparison to women on hormone therapy. The procedure:
Mirtazapine is used as non-hormonal therapy for vasomotor symptoms. Treatment dose is 15 mg. The length of weaning is 6 months. In this example subjects for treatment have the following characteristics: Postmenopausal women of 60-65 year old who have been on hormone therapy for the treatment of vasomotor symptoms associated with menopause for at least 2 years. They have either a need or a desire to discontinue hormone therapy. They are informed of the risks of mirtazapine. They are informed that successful use of mirtazapine for the relief of vasomotor symptoms associated with menopause has been reported in the medical literature. This method should not be used for women who have a condition or take medications that preclude the use of mirtazapine. A person treated according to this example is instructed to take 15 mg mirtazapine by mouth on the day that they are to discontinue hormone therapy. Mirtazapine is prescribed to be taken at bedtime and after all their evening rituals are done so that they can lay down right after taking mirtazapine. They are instructed to continue taking 15 mg of mirtazapine at bedtime for 6 months after which mirtazapine administration is discontinued. […] Method to measure hot flash frequency: by self rating or according to the method described by Freedman et al J. Clin Endocrin & Metabolism, Vol 80, pp 2354-2358.

For a further test, the system named is women with breast cancer. The note with it: results of 15 randomized controlled trials; cited from earlier work.

With `CN1CCN2c3ncccc3Cc3ccccc3C2C1` (racemic) [Mirtazapine], in the test with postmenopausal women, the withdrawal vasomotor symptoms result was “absent or strongly reduced”.
For the molecule `Clc1cccc(Cl)c1N=C1NCCN1` [clonidine], the “measures of hot flashes” value in the test with women with breast cancer is “significantly improved”.
Regarding `CC(=O)O[C@]1(C(C)=O)CC[C@H]2[C@@H]3C=C(C)C4=CC(=O)CC[C@]4(C)[C@H]3CC[C@@]21C` [megestrol acetate], the “measures of hot flashes” value in the test with women with breast cancer was “significantly improved”.
`COc1ccc(C(CN(C)C)C2(O)CCCCC2)cc1` (stereo not shown) [venlafaxine]: in the test on women with breast cancer, the “measures of hot flashes” value is “significantly improved”.

Source of the values: patent US20090306046A1, “METHOD OF TREATMENT OF HORMONE DEPLETION INDUCED VASOMOTOR SYMPTOMS” (N.V. ORGANON, priority 2005, published 2009).
